In US20100209496A1, “LIQUID AND SEMI-SOLID PHARMACEUTICAL FORMULATIONS FOR ORAL ADMINISTRATION OF A SUBSTITUTED AMIDE” (priority 2006, published 2010):

How the values were obtained:
[1] = Bioavailability when dosed as a crystalline solid (dogs); type: in vivo
[2] = Bioavailability (drug plasma levels) from liquid-filled capsule dosage form; type: in vivo; conditions: compound in solution in liquid and semi-solid excipients, versus crystalline solid
[3] = Compound I Form I solubility in various liquid vehicles; type: physicochemical; conditions: aqueous
[4] = Bioavailability when dosed as a crystalline solid (rats); type: in vivo

bioavailability [1]: poorly bioavailable | bioavailability [2]: increased dramatically | aqueous solubility [3]: < 0.2 µg/mL | bioavailability [4]: poorly bioavailable
Substance: 3-[(3aR,4R,5S,7aS)-5-{(1R)-1-[3,5-bis(Trifluoromethyl)phenyl]ethoxy}-4-(4-fluorophenyl)-octahydro-2H-isoindol-2-yl]cyclopent-2-en-1-one [Compound I]
